Patent publication US20230158022A1, “METHODS OF USING MYT1 INHIBITORS” (Repare Therapeutics Inc., priority 2020, published 2023)

Experiments:
[1] = system: RPE1-hTERT Cas9 TP53−/− parental (WT) and CCNE1-overexpressing clones; assay: Dose-response proliferation assay (IncuCyte confluency), RPE1-hTERT parental vs CCNE1-overexpressing clones; format: cell-based; conditions: dose titration, FIG. 3C
Experimental: For dose-response proliferation assays using RPE1-hTERT and FT282-hTERT cell lines, cells were seeded in 96-well plates and dosed with serially diluted Myt1 inhibitor. Cells were imaged once per day using the IncuCyte S3 microscope and percent well confluency was calculated over time. Once cells reached four population doublings the experiment was ended and IC50 curves were plotted for the final time point. Percentage confluency was calculated relative to the cell confluency in the untreated wells.

[2] = biological target: T1, recombinant human Myt1 (full length PKMYT1) (Homo sapiens, UniProt Q99640); assay: Myt1 enzymatic assay (ADP-Glo kinase assay, ATP hydrolysis)
T1 sequence (Q99640 1-499): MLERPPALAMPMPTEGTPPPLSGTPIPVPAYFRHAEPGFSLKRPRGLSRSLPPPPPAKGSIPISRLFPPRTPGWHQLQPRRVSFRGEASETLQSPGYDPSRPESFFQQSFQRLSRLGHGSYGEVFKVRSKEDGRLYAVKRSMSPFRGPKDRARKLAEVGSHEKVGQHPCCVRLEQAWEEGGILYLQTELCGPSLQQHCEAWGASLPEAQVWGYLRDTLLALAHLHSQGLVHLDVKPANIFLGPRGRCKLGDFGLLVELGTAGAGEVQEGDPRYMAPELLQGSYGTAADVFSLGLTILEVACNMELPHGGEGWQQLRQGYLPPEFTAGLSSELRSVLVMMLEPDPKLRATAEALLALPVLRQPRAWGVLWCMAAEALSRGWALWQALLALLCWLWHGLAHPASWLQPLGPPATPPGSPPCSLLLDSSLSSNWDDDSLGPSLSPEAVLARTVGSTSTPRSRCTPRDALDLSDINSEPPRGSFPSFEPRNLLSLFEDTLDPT
Experimental: Detection of Myt1 kinase activity utilized a recombinant human Myt1 kinase assay measuring the hydrolysis of ATP using a commercially available ADP-Glo Assay (ADP-Glo™ Kinase Assay from Promega, 10 000 assays, #V9102). […] After this, 5 μL of compounds (diluted in reaction buffer to 0.5% DMSO) was added to the microplate and the plate was spun briefly and incubated at 22° C. for 15 minutes. […] Luminescence was read using the Envision (250 ms integration). The IC50 and the % max inhibition were calculated for each inhibitor compound tested.

| IC50 [2] [nM] | SMILES | sensitivity (cell viability) of CCNE1-overexpressing cells compared with corresponding WT cells [1] |
| --- | --- | --- |
|  | Cc1ccc(O)c(C)c1-n1c(N)c(C(N)=O)c2cc(Cl)cnc21 (single isomer, unassigned) [Compound 133, S-2-amino-5-chloro-1-(3-hydroxy-2,6-dimethyl-phenyl)pyrrolo[2,3-b]pyridine-3-carboxamide] | more sensitive |
| 922 | Cc1ccc(O)cc1-n1c(N)c(C(N)=O)c2nc(Cl)ccc21 [Compound 4] |  |
